# Experimental data from US20210101881A1 (Ancureall Pharmaceutical (Shanghai) Co., Ltd., priority 2018, published 2021).
# System: human MOLM13 leukemia cells
# Test: In vivo growth inhibition test of tumor cell (MOLM13 subcutaneous model)
# Description: Test Example 4. In Vivo Growth Inhibition Test of Tumor Cell
# Experimental animals: Bab/c immunodeficiency mice, female, 6 weeks old (weighing about 20 grams), purchased from Shanghai Sippr-BK laboratory animal Co. Ltd., raised by the Animal Center of Shanghai Fudan University, approved by the Ethics Committee of Shanghai Fudan University. The breeding environment is SPF level.
# Test samples: Compound 140 of the present invention (purity: 99%), solid powder, stored at 4-8° C.
# Cell and animal modelling: human MOLM13 leukemia cells were cultured in RPMI 1640 medium containing 10% fetal bovine serum. Cells in the exponential growth phase were collected (centrifuge at 1700 rpm for 3 minutes), washed once with 1×PBS, and resuspended to obtain a final concentration of 5×10^7/ml cells. Single-point inoculation of 0.1 ml was carried out subcutaneously on the right back.
# When the average tumor volume reached ˜400 mm^3, the mice were randomly grouped according to tumor size. The test was divided into solvent control group and administration group, with 3 mice in each group. 0.01 ml of solution per gram of mouse weight was intragastrically administered (p.o.) once a day. The tumor was measured three times a week. Calculation formula for tumor volume: long diameter×short diameter^2/2. When the tumor volume of the control group reached 2000 mm^3, the experiment was ended, and molecular pathological analysis of tumor tissue was performed. The efficacy was evaluated based on the relative tumor growth inhibition rate (TGI), and the safety was evaluated based on the change of animal weight.
# Formulation of test samples: An appropriate amount of compound 140 was weighed. An appropriate amount of ultrapure water was added and mixed well.
# Methanesulfonic acid was then added to obtain a clear solution, and 4M NaOH was added dropwise to adjust pH to 4.3. Ultrapure water was added to obtain a constant volume and a final concentration of 5 mg/ml.
# The solvent control group was an aqueous methanesulfonic acid solution (pH 4.3).
# T/C % represents the relative tumor growth rate, that is, the percentage ratio of relative tumor volume or tumor weight of the administration group to that of the control group at a certain time point. T and C respectively represent the relative tumor volume (RTV) of the administration group and the control group at a certain time point. T/C % is calculated as follows:
# wherein TRTV: the average RTV of the administration group; CRTV: the average RTV of the solvent control group: RTV=Vt/V0, V0 represents the tumor volume of the animal at the time of grouping, and Vt represents the tumor volume of the animal after administration.
# Statistical analysis: All test results were expressed as mean tumor volume±SEM (mean standard error). The tumor volume data on Day 9 after the start of administration was selected for statistical analysis among different groups. The significant difference between the relative tumor volume of the administration group and that of the control group was determined by independent sample T test method. All data were analyzed with SPSS 18.0. p<0.05 means that there is a significant difference.
# [1] = MOLM13 model, 50 mg/kg p.o. once a day, Day 9 after the start of administration
structure (smiles),measurement,setting,value
"NC(=O)c1cn(-c2nc(Nc3cccc(N4CCN(C5CCOCC5)CC4)c3)ncc2F)c2ccccc12 [Compound 140, 1-(5-fluoro-2-{3-[4-(tetrahydro-pyran-4-yl)-piperazin-1-yl]-phenylamino}-pyrimidin-4-yl)-1H-indole-3-carboxamide]",tolerability of the drug,50 mg/kg p.o. once a day,well tolerated
same,weight of the mouse during the administration,50 mg/kg p.o. once a day,remained stable
same,TGI (%),[1],91.29%
same,TIC (%),[1],8.71%
same,Tumor volume (mm^3),"MOLM13 model, 50 mg/kg p.o. once a day, Day 9 after the start of administration, mean ± SEM",164.8 ± 12 mm^3
same,growth of human acute myeloid leukemia MOLM13 cells in vivo,dose of 50 mg/kg,effectively inhibit the growth
